Experimental data: patent publication US7544814B2, “[3.2.0] Heterocyclic compounds and methods of using the same” (Nereus Pharmaceuticals, Inc., priority 2004, dated 2009)
Several values for one entry are separate records, joined by “and”; a condition that tells them apart may be missing. Equal entries are not always repeated. Where two headings read alike, the source gives them in different places.

Tests used:
[1] = target: T1, trypsin-like activity of purified rabbit muscle 20S proteasome (Oryctolagus cuniculus, UniProt G1SWK8); test: In vitro inhibition of 20S proteasome trypsin-like activity (Boc-LRR-AMC)
T1 sequence (G1SWK8 1-271): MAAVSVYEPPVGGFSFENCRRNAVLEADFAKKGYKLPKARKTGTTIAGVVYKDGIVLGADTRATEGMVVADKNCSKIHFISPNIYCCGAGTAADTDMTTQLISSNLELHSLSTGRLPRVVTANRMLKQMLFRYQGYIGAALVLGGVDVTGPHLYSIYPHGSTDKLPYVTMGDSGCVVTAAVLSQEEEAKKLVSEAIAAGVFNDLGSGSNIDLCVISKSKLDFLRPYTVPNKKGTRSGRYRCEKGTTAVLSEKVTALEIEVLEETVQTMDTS

[2] = tested on: NF-κB; test: NF-κB-mediated luciferase reporter gene assay, HEK293 NF-κB/Luc cells, TNF-α stimulation; type: cell-based, human; conditions: for effect on luciferase activity upon TNF-α stimulation, in words: pretreatment of NF-κB/Luc 293 cells
Procedure: The HEK293 NF-κB/luciferase reporter cell line is a derivative of the human embryonic kidney cell line (ATCC; CRL-1573) and carries a luciferase reporter gene under the regulation of 5× NF-κB binding sites. […] When performing the luciferase assay, the DMEM basal medium was replaced with phenol-red free DMEM basal medium and the G418 was omitted.
For NF-κB-mediated luciferase assays, HEK293 NF-κB/luciferase cells were seeded at 1.5×10^4 cells/well in 90 μl phenol-red free DMEM complete medium into Corning 3917 white opaque-bottom tissue culture plates. For Formula II-2, Formula II-4, Formula II-5A, and Formula II-18, a 400 μM starting dilution was made in 100% DMSO and this dilution was used to generate a 8-point half log dilution series. […] For Formula II-20, a 2.5 mM or 8 mM starting solution was made in 100% DMSO and the final test concentrations ranged from 6.3 μM to 2.0 nM or 20 μM to 6.3 nM, respectively. The plates were returned to the incubator for 1 hour. After 1 hr pretreatment, 10 μl of a 50 ng/ml TNF-α solution, prepared in the phenol-red free DMEM medium was added, and the plates were incubated for an additional 6 hr.
At the end of the TNF-α stimulation, 100 μl of Steady Lite HTS luciferase reagent (Packard Bioscience) was added to each well and the plates were left undisturbed for 10 min at room temperature before measuring the luciferase activity. The relative luciferase units (RLU) were measured by using a Fusion microplate fluorometer (Packard Bioscience).

[3] = tested on: NCI-H292; test: Cell growth inhibition (resazurin), NCI-H292; conditions: for EC50: Homo sapiens, NCI-H292, 48 h
[4] = tested on: OVCAR-3; test: Cell growth inhibition (resazurin), OVCAR-3; conditions: for EC50: 48 hours drug exposure
[5] = target: T2, chymotrypsin-like activity of purified rabbit muscle 20S proteasome (Oryctolagus cuniculus, UniProt G1T4Q9); test: In vitro inhibition of 20S proteasome chymotrypsin-like activity (suc-LLVY-AMC)
T2 sequence (G1T4Q9 1-263): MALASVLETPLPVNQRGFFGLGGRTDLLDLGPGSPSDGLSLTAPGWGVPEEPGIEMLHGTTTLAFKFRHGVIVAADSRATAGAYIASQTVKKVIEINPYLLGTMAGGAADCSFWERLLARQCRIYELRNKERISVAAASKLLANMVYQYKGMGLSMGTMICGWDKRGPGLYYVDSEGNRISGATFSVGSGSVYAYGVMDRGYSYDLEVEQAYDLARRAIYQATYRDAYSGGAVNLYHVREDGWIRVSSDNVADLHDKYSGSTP

[6] = tested on: MDA-MB-231; test: Cell growth inhibition (resazurin), MDA-MB-231
[7] = tested on: U266; test: Cell growth inhibition (resazurin), U266; conditions: for EC50: 48 hours drug exposure; for cytotoxicity against U266, in words: from EC50 values
[8] = tested on: RPMI 8226; test: Cell growth inhibition (resazurin), RPMI 8226; conditions: for cytotoxicity against RPMI 8226, in words: from EC50 values
[9] = tested on: PC-3; test: Cell growth inhibition (resazurin), PC-3; type: cell-based, human
[10] = tested on: HT-29; test: Cell growth inhibition (resazurin), HT-29
[11] = target: T1, trypsin-like activity of purified rabbit muscle 20S proteasome; test: biochemical
[12] = target: T3, caspase-like activity of purified rabbit muscle 20S proteasome (Oryctolagus cuniculus, UniProt A0A5F9DQW2); test: In vitro inhibition of 20S proteasome caspase-like activity (Z-LLE-AMC)
T3 sequence (A0A5F9DQW2 1-212): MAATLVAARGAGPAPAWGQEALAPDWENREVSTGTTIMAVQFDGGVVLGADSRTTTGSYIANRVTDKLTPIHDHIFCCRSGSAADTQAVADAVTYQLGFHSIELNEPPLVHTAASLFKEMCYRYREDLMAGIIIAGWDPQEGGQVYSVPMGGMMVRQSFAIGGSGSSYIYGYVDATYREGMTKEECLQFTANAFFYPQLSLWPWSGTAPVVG

[13] = tested on: B16-F10; test: Cell growth inhibition (resazurin), B16-F10
[14] = EC50 Chymotrypsin-like, Table 6, values in nM
[15] = Homo sapiens, U-266, 48 h, read-out: U266 EC50, Table 2
[16] = Homo sapiens, RPMI-8226, 48 h, read-out: RPMI 8226 EC50, Table 2, 48 hours drug exposure, mean ± SD where n≥3
[17] = read-out: RPMI 8226 EC50, Table 2, 48 hours drug exposure, mean ± SD where n≥3
[18] = EC50 Caspase-like, Table 6, values in nM
[19] = EC50 values, caspase-like activity, summary of Table 6
[20] = EC50 values, chymotrypsin-like activity, summary of Table 6
[21] = EC50 Caspase-like, Table 6, values in μM
[22] = Homo sapiens, HEK293, read-out: EC50, NF-κB-mediated luciferase reporter gene assay, Table 5, values in μM, 1 hr pretreatment, TNF-α 6 hr

Compound: C[C@@]12OC(=O)[C@]1(C(O)[C@@H]1C=CCCC1)NC(=O)[C@@H]2CCI (single isomer, unassigned) [Formula II-19]
- inhibition of the trypsin-like activity of the 20S proteasome, in words ([1]; under the conditions tested): able to inhibit
- EC50 ([2]; Homo sapiens, HEK293, read-out: EC50, NF-κB-mediated luciferase reporter gene assay, Table 5, values in nM, 1 hr pretreatment, TNF-α 6 hr): 7 nM
- EC50 ([2]; Homo sapiens, HEK293, read-out: NF-κB EC50, Table 12): 10 nM
- effect on luciferase activity upon TNF-α stimulation, in words [2]: dose-dependent decrease
- EC50 ([3]; read-out: EC50 against NCI-H292, Table 1, 48 hours drug exposure, mean ± SD where n≥3): 27 ± 3.8 nM
- cytotoxicity against NCI-H292, in words ([3]; from EC50 values): cytotoxic
- EC50 ([4]; Homo sapiens, OVCAR-3, 48 h, read-out: EC50 against OVCAR-3, Table 1): 24 nM
- cytotoxicity against OVCAR-3, in words ([4]; from EC50 values): cytotoxic
- EC50 ([4]; read-out: EC50 against OVCAR-3, Table 1): 20 nM
- EC50 [5, 14]: 3 nM
- EC50 ([5]; Proteasome Chymotrypsin-like EC50, Table 12): 3 nM
- EC50 ([6]; Homo sapiens, MDA-MB-231, 48 h, read-out: EC50 against MDA-MB-231, Table 1, 48 hours drug exposure, mean ± SD where n≥3): 14 ± 3.2 nM
- cytotoxicity against MDA-MB-231, in words ([6]; from EC50 values): cytotoxic
- EC50 ([7]; Homo sapiens, U-266, 48 h, read-out: EC50 against U266, Table 1): 3.2 nM
- EC50 [7, 15]: 3.2 nM
- cytotoxicity against U266, in words [7]: cytotoxic
- EC50 ([7]; read-out: EC50 against U266, Table 1): 3.4 nM
- EC50 ([7]; read-out: U266 EC50, Table 2): 3.4 nM
- EC50 ([8]; Homo sapiens, RPMI-8226, 48 h, read-out: EC50 against RPMI 8226, Table 1, 48 hours drug exposure): 5.9 nM
- EC50 [8, 16]: 5.9 nM
- EC50 ([8]; Homo sapiens, RPMI-8226, read-out: Cytotoxicity RPMI EC50, Table 12): 6 nM
- cytotoxicity against RPMI 8226, in words [8]: cytotoxic
- EC50 ([8]; read-out: Cytotoxicity RPMI EC50, Table 12): 7 nM
- EC50 ([8]; read-out: EC50 against RPMI 8226, Table 1, 48 hours drug exposure): 7.1 nM
- EC50 [8, 17]: 7.1 nM
- EC50 ([9]; Homo sapiens, PC-3, 48 h, Table 1, 48 hours drug exposure, mean ± SD where n≥3, read-out: EC50 against PC-3): 29 ± 4 nM
- cytotoxicity against PC-3, in words ([9]; from EC50 values): cytotoxic
- EC50 ([10]; Homo sapiens, HT-29, 48 h, read-out: EC50 against HT-29, Table 1, 48 hours drug exposure, mean ± SD where n≥3): 11 ± 1.6 nM
- cytotoxicity against HT-29, in words ([10]; from EC50 values): cytotoxic
- EC50 [11]: 13 nM and 15 nM
- EC50 [12, 18]: 573 nM and 739 nM
- EC50 [12, 19]: 213 to 850 nM
- EC50 ([12]; Proteasome Caspase-like EC50, Table 12): 573 nM and 739 nM
- EC50 ([13]; Mus musculus, B16-F10, 48 h, read-out: EC50 against B16-F10, Table 1, 48 hours drug exposure, mean ± SD where n≥3): 13 ± 1.9 nM
- cytotoxicity against B16-F10, in words ([13]; from EC50 values): cytotoxic

Compound: CC[C@H]1C(=O)N[C@@]2([C@@H](O)C3CCCCC3)C(=O)O[C@@]12C [Formula II-3]
- inhibition of the trypsin-like activity of the 20S proteasome, in words [1]: able to inhibit
- EC50 ([3]; read-out: EC50 against NCI-H292): > 20000 nM
- EC50 [5, 14]: 964 nM
- EC50 [5, 20]: 207 to 964 nM
- EC50 [8, 16]: > 20000 nM
- EC50 [11]: 5500 nM and 7700 nM
- EC50 [12, 21]: > 20000 nM

Compound: C[C@@]12OC(=O)[C@]1([C@@H](O)[C@@H]1C=CCCC1)NC(=O)[C@@H]2CCN=[N+]=[N-] [Formula II-29]
- inhibition of the trypsin-like activity of the 20S proteasome, in words ([1]; under the conditions tested): able to inhibit
- EC50 [2, 22]: 1200 nM
- effect on luciferase activity upon TNF-α stimulation, in words [2]: dose-dependent decrease
- EC50 ([2]; read-out: EC50, NF-κB-mediated luciferase reporter gene assay, Table 5, values in μM, 1 hr pretreatment, TNF-α 6 hr): 1400 nM
- EC50 [5, 14]: 6 nM and 8 nM
- EC50 [5, 20]: 2 to 11 nM
- cytotoxicity against U266, in words [7]: cytotoxic
- EC50 [8, 16]: 4280 nM
- cytotoxicity against RPMI 8226, in words [8]: cytotoxic
- EC50 [8, 17]: 6940 nM
- EC50 [11]: 175 nM and 254 nM
- EC50 [12, 18]: 535 nM and 520 nM
- EC50 [12, 19]: 213 to 850 nM

Compound: CCC[C@H]1C(=O)N[C@@]2([C@@H](O)[C@@H]3C=CCCC3)C(=O)O[C@@]12C [Formula II-30]
- inhibition of the trypsin-like activity of the 20S proteasome, in words ([1]; under the conditions tested): able to inhibit
- EC50 [2, 22]: 2200 nM
- effect on luciferase activity upon TNF-α stimulation, in words [2]: dose-dependent decrease
- EC50 [5, 14]: 21 nM
- EC50 [5, 20]: 13 to 88 nM
- EC50 [7, 15]: 889 nM
- cytotoxicity against U266, in words [7]: cytotoxic
- EC50 ([7]; read-out: U266 EC50, Table 2): 1240 nM
- EC50 [8, 16]: 4900 nM
- cytotoxicity against RPMI 8226, in words [8]: cytotoxic
- EC50 [8, 17]: 4160 nM
- EC50 [11]: 905 nM and 1200 nM
- EC50 [12, 18]: 956 nM
- EC50 [12, 21]: 1300 nM
- EC50 ([12]; EC50 values, caspase-like activity, range in mixed units, summary of Table 6, range from nM to μM): 956 to 8700 nM
